Reference: patent US20250268877A1 (BIOGEN MA INC., priority 2020, published 2025)
In brackets after ≈: the same amount, converted by molar mass. Where two headings read alike, the source gives them in different places.

Assays:
[1] = biological target: IRAK4 (Homo sapiens (Human), UniProt Q9NWZ3); experiment: IRAK4 2-hour 1 mM ATP Biochemical Assay (MesoScale Detection format); conditions: 100 pM IRAK4, read-out: IRAK4 IC50
[2] = Kinetic solubility assay (CLND), potassium phosphate buffer pH 6.8; type: physicochemical; conditions: potassium phosphate buffer, kinetic from dmso stock, pH 6.8, 2% DMSO, 24 hours at ambient temperature; for solubility at 24 h: pH 6.8, aqueous buffer
From the text: • Inject filtrates into the nitrogen detector for quantification on Analiza's Automated Discovery Workstation (ADW). • Solubility results generated in μg/mL

[3] = biological target: catalytical domain of human IRAK4 (a.a. 163-460) (Homo sapiens (Human), UniProt Q9NWZ3); experiment: IRAK4 SPR binding assay; conditions: single-cycle, 1:1 interaction model
Method: IRAK4 SPR. IRAK4 SPR was set up on Biacore T200 or S200 by using Biotin CAPture kit (Cytiva). In brief, purified IRAK4 in capture buffer (25 mM Hepes, 150 mM NaCl, 1 mM TCEP, pH7.4) was captured onto a CAP sensor surface via the interaction of biotin to streptavidin Typical capture level is between 1,000 RU to 2,000 RU, Compound binding kinetics to IRAK4 was examined with running buffer (25 mM Hepes, 150 mM NaCl, 1 mM TCEP, 2% DMSO, pH7.4). Serially diluted compounds were injected at 50 μl/min in single-cycle for 60-s association of each injection followed by 360-s dissociation at the end. The data was fitted to global 1:1 interaction model.

[4] = biological target: MDR1 (Homo sapiens (Human), UniProt P08183); experiment: MDR1-MDCK assay (apparent permeability, efflux ratio); type: in vitro ADME; conditions: human, MDCK-MDR1, 1 μM
[5] = Kpuu assay (in vivo brain-to-plasma partition, unbound); conditions: intravenous infusion 4 to 24 h, unbound drug partition coefficient; for Kp: brain (unbound) versus plasma (unbound), read-out: Brain Kpu,u
Method: For the brain-to-plasma partition coefficient (Kp) evaluation, a dosing solution was intravenously infused into animals at a constant flow rate for 4 to 24 h. Blood samples were serially collected during infusion, and CSF and brain samples were harvested at the end of infusion.
Tissue samples were typically homogenized in phosphate buffer saline (PBS) using a bead ruptor.
CSF samples were typically diluted with 8% BSA in PBS to prevent from non-specific binding. Artificial CSF (aCSF) is used as the surrogate matrix.
Calibration curves were prepared by spiking the analyte(s) into blank matrices, which were processed together with plasma, tissue homogenate and/or CSF samples by protein precipitation using a proper organic solvent (e.g. acetonitrile and methanol) containing generic analogue internal standards (e.g. verapamil, chrysin and glyburide). Matrix matching was used when analyzing multiple matrices in the same run. Samples above the upper limit of quantitation (ULOQ) needed to be diluted into the calibration range using either a pre-extraction or post-extraction dilution approach.
Processed samples were analyzed by LC-MS/MS using a proper method performing within the acceptable sensitivity, selectivity, precision and accuracy. For an analytical run to be accepted, over 75% of the calibration standards in the dual calibration curves needed to be within 20% of the nominal concentrations.
Brain concentrations were compared against plasma concentrations at the corresponding timepoint for the calculation of partition coefficient (Kp).
Unbound drug partition coefficient (Kpuu), defined as the ratio of unbound drug partition across the blood-brain barrier, was calculated using the equation below:
[formula] • Cb: measured total drug concentration in brain • Fub: unbound drug fraction in brain • Cp: measured total drug concentration in plasma • Fup: unbound drug fraction in plasma Compound- or study-specific PK analysis that deviates from the typical procedure might be used when necessary, which will be documented in a study specific protocol included in the data upload.
Mix thoroughly. • This spiked plasma solution is shown in FIG. 1. • 3) Prepare a chilled ‘crash’ solution of internal standard in a solvent solution. • Pipette 200 μL of 25 ng/mL solution of internal standard, CPDPX (8-Cyclopentyl-1,3-dipropylxanthine, Sigma-Aldrich, C101) in 1:1 acetonitrile/methanol solvent solution into a 1 mL 96-well plate. • Chill on ice or refrigerate at 4° C. • This solution becomes the ‘Crash’ plate in FIG. 1. • 4) From remaining spiked plasma, remove 50 μL (T=0 h) of each plasma sample and place into a crash plate which contains 200 μL. To matrix match, add 50 μL of blank buffer to the crashed sample (similar to PPB samples). […] Mix crash plate thoroughly. • From remaining spiked plasma, remove 50 μL (T=4 h) of each plasma sample and place into a crash plate. To matrix match, add 50 μL of blank buffer to the crashed sample (similar to the protein binding samples). • Centrifuge crash plate at 3900 rpm for 10 minutes at 4° C.
% Free=(PAR of buffer side/PAR of plasma side)*100 • PAR—Peak area ratio (PAR)
Fu=% Free/100 • Fu=fraction unbound

[6] = read-out: MDR1-MDCK_Efflux Ratio

Sequence of IRAK4 (Q9NWZ3 whole entry): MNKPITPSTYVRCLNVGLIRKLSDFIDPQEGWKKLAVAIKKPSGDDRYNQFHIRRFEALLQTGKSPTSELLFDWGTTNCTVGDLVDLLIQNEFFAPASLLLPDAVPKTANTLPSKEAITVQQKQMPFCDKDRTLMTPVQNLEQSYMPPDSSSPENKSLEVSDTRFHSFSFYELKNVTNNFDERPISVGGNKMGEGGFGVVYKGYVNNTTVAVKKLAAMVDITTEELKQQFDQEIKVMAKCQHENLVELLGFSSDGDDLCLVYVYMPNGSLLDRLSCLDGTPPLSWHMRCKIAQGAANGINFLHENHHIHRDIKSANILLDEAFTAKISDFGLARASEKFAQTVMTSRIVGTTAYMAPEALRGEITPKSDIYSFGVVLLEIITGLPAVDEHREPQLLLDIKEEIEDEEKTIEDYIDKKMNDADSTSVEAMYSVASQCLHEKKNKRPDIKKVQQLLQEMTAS
Sequence of MDR1 (P08183 whole entry, the tested form may be a part): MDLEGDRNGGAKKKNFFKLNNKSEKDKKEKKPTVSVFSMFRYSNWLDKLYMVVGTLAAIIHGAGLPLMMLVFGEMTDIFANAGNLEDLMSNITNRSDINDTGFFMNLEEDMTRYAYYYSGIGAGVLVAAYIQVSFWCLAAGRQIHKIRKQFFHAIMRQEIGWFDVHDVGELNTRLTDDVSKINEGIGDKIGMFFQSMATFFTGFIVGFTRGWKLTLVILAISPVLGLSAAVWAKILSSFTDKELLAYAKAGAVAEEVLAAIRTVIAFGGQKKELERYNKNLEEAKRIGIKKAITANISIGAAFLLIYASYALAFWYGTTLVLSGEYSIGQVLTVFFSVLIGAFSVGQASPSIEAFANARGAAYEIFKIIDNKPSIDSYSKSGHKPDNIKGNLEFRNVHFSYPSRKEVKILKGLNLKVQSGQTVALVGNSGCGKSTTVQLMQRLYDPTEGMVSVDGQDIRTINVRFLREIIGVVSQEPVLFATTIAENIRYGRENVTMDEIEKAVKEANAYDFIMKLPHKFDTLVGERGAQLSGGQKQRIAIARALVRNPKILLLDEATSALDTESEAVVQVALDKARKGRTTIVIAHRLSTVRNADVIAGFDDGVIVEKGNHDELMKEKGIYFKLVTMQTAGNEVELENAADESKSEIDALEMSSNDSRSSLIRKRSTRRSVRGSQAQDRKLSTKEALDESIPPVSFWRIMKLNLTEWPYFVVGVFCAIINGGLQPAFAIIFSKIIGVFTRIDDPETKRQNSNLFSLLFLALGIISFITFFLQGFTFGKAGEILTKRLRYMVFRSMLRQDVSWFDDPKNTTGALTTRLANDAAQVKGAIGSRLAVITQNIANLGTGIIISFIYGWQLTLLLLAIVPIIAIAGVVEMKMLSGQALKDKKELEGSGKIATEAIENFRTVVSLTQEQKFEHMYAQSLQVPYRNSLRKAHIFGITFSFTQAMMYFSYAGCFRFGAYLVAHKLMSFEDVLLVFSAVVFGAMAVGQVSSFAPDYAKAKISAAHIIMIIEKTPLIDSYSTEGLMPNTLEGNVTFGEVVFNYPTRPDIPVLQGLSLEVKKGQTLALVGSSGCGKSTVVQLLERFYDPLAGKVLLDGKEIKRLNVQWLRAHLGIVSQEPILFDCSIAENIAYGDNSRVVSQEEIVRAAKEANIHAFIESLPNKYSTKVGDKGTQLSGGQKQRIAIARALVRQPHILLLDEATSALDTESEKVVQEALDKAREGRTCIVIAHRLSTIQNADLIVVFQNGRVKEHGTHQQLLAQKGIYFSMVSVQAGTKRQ
Sequence of catalytical domain of human IRAK4 (a.a. 163-460) (Q9NWZ3 163-460): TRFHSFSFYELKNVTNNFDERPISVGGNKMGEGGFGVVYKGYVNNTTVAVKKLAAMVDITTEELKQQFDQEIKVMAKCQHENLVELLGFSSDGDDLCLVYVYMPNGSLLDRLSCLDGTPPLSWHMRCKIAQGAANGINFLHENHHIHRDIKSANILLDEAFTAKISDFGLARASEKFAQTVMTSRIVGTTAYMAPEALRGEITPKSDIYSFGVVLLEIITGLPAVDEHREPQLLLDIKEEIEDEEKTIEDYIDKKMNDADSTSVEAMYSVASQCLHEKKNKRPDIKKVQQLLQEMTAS

Structure (SMILES) | IC50 [1] [nM] | solubility at 24 h [2] [µg/mL] | IRAK4 SPR binding Half Life [3] [min] | efflux ratio at 120 min, 1 μM [4, 6] | Kp [5] | Brain Kpu,u [5] | Kp ([5]; comparator table) | solubility kinetic at 24 h ([2]; aqueous buffer, comparator table) [µg/mL] | IRAK4 SPR binding Half Life ([3]; comparator table) [min] | efflux ratio at 120 min, 1 μM ([4]; comparator table, read-out: MDR1-MDCK Efflux Ratio)
CC(C)Oc1nc2nn([C@]34CC[C@](C)(C3)OC4)cc2cc1C(=O)Nc1cccn(C2CC2)c1=O (single isomer, unassigned) [Example 48] | 0.2 | 1.48 (≈ 3.19 µM) | 58 | 1.73 | – | – | – | – | – | –
CC(C)Oc1nc2nn([C@@]34CC[C@@](C)(C3)OC4)cc2cc1C(=O)Nc1cccn(C2CC2)c1=O (single isomer, unassigned) [Example 47] | 0.2 | 1.09 (≈ 2.35 µM) | 54 | 2.04 | 1.6 | – | – | – | – | –
O=C(Nc1cccn([C@H]2C[C@H]2F)c1=O)c1cc2cn([C@]34CC[C@H](C3)OC4)nc2nc1OC1CC1 (single isomer, unassigned) [Example 88] | 0.2 | 59.3 (≈ 127 µM) | – | 9.11 | 0.2 | – | – | – | – | –
CC(C)Oc1cc2nn([C@@]34CC[C@@](C)(C3)OC4)cc2cc1C(=O)Nc1cccn([C@H]2C[C@H]2F)c1=O [Example 50, N-(1-((1S,2R)-2-fluorocyclopropyl)-2-oxo-1,2-dihydropyridin-3-yl)-6-isopropoxy-2-((1S,4S)-1-methyl-2-oxabicyclo[2.2.1]heptan-4-yl)-2H-indazole-5-carboxamide] | 0.1 | 40.5 (≈ 84.3 µM) | 138 | 2.75 | 0.4 | – | – | – | – | –
CC(C)Oc1cc2nn([C@]34CC[C@](C)(C3)OC4)cc2cc1C(=O)Nc1cccn([C@H]2C[C@H]2F)c1=O (single isomer, unassigned) [Example 51] | 0.1 | 42.3 (≈ 88 µM) | 139 | 3.47 | 0.4 | – | – | – | – | –
CC(C)Oc1cc2nn(C34COC(CF)(C3)C4)cc2cc1C(=O)Nc1cccn([C@@H]2C[C@H]2C)c1=O (single isomer, unassigned) [Example 69] | 0.5 | 8.2 (≈ 17.1 µM) | – | 1.74 | 0.7 | – | – | – | – | –
COCC12CC(n3cc4cc(C(=O)Nc5cccn([C@H]6C[C@H]6F)c5=O)c(OC5CC5)nc4n3)(CO1)C2 (single isomer, unassigned) [Example 86] | 0.2 | 13.9 (≈ 28.1 µM) | 74 | 18.7 | – | – | – | – | – | –
C[C@]12CC[C@](n3cc4cc(C(=O)Nc5cccn(C6CC6)c5=O)c(OC5CCC5)cc4n3)(CO1)C2 (single isomer, unassigned) [Example 41] | 0.2 | 19.7 (≈ 41.5 µM) | 31.6 | 1.71 | – | 0.9 | – | – | – | –
CC(C)Oc1nc2nn(C34COC(C)(C3)C4)cc2cc1C(=O)Nc1cccn(C2CC2)c1=O [Example 9, N-(1-cyclopropyl-2-oxo-1,2-dihydropyridin-3-yl)-6-isopropoxy-2-(1-methyl-2-oxabicyclo[2.1.1]hexan-4-yl)-2H-pyrazolo[3,4-b]pyridine-5-carboxamide] | 0.3 | 18.7 (≈ 41.6 µM) | 80.4 | 3.26 | 0.8 | – | – | – | – | –
CC(C)Oc1cc2nn(C34COC(C)(C3)C4)cc2cc1C(=O)Nc1cccn(C)c1=O [Comparator 1A, 6-isopropoxy-N-(1-methyl-2-oxo-1,2-dihydropyridin-3-yl)-2-(1-methyl-2-oxabicyclo[2.1.1]hexan-4-yl)-2H-indazole-5-carboxamide, reference compound] | – | – | – | – | – | – | 1 | 60 (≈ 142 µM) | 9.0 | 1.2
CC(C)Oc1nc2nn(C[C@@H]3CCOC3)cc2cc1C(=O)Nc1cccn(C2CC2)c1=O [Example 4, (S)—N-(1-cyclopropyl-2-oxo-1,2-dihydropyridin-3-yl)-6-isopropoxy-2-((tetrahydrofuran-3-yl)methyl)-2H-pyrazolo[3,4-b]pyridine-5-carboxamide] | 0.4 | 43 (≈ 98.2 µM) | – | 6.36 | 0.4 | – | – | – | – | –
CC12CC(n3cc4cc(C(=O)Nc5cccn([C@H]6C[C@H]6F)c5=O)c(OC5CCC5)nc4n3)(CO1)C2 [Example 27, 6-cyclobutoxy-N-(1-((1S,2R)-2-fluorocyclopropyl)-2-oxo-1,2-dihydropyridin-3-yl)-2-(1-methyl-2-oxabicyclo[2.1.1]hexan-4-yl)-2H-pyrazolo[3,4-b]pyridine-5-carboxamide] | 0.1 | 1.2 (≈ 2.5 µM) | – | 5.38 | 0.7 | – | – | – | – | –
CC(C)Oc1nc2nn([C@@H]3CCCOC3)cc2cc1C(=O)Nc1cccn(C2CC2)c1=O [Example 17, (R)—N-(1-cyclopropyl-2-oxo-1,2-dihydropyridin-3-yl)-6-isopropoxy-2-(tetrahydro-2H-pyran-3-yl)-2H-pyrazolo[3,4-b]pyridine-5-carboxamide] | 0.2 | 50.4 (≈ 115 µM) | – | 2.6 | 0.5 | – | – | – | – | –
COCC12CC(n3cc4cc(C(=O)Nc5cccn([C@H]6C[C@@H]6F)c5=O)c(OC(C)C)nc4n3)(CO1)C2 (single isomer, unassigned) [Example 64] | 0.4 | 58.9 (≈ 118 µM) | 47.2 | 4.35 | – | – | – | – | – | –
CC(C)Oc1cc2nn(C34COC(C3)C4)cc2cc1C(=O)Nc1cccn([C@H]2C[C@H]2F)c1=O [Example 68, 2-(2-oxabicyclo[2.1.1]hexan-4-yl)-N-(1-((1S,2R)-2-fluorocyclopropyl)-2-oxo-1,2-dihydropyridin-3-yl)-6-isopropoxy-2H-indazole-5-carboxamide] | 0.2 | 45.3 (≈ 100 µM) | – | 8.61 | 0.4 | – | – | – | – | –
COCC12CC(n3cc4cc(C(=O)Nc5cccn(C6CC6)c5=O)c(OC(C)C)nc4n3)(CO1)C2 [Example 11, N-(1-cyclopropyl-2-oxo-1,2-dihydropyridin-3-yl)-6-isopropoxy-2-(1-(methoxymethyl)-2-oxabicyclo[2.1.1]hexan-4-yl)-2H-pyrazolo[3,4-b]pyridine-5-carboxamide] | 0.2 | 36 (≈ 75.1 µM) | – | 4.8 | 0.9 | – | – | – | – | –
CC(C)Oc1nc2nn(C[C@H]3CCOC3)cc2cc1C(=O)Nc1cccn(C2CC2)c1=O [Example 5, (R)—N-(1-cyclopropyl-2-oxo-1,2-dihydropyridin-3-yl)-6-isopropoxy-2-((tetrahydrofuran-3-yl)methyl)-2H-pyrazolo[3,4-b]pyridine-5-carboxamide] | 0.2 | 45.6 (≈ 104 µM) | – | 4.88 | 0.8 | – | – | – | – | –
C[C@@]12CC[C@@](n3cc4cc(C(=O)Nc5cccn(C6CC6)c5=O)c(OC5CCC5)cc4n3)(CO1)C2 (single isomer, unassigned) [Example 40] | 0.4 | 19.9 (≈ 41.9 µM) | – | 1.32 | – | 0.8 | – | – | – | –
CC(C)Oc1nc2nn(C34COC(C3)C4)cc2cc1C(=O)Nc1cccn([C@H]2C[C@H]2C)c1=O [Example 80, 2-(2-oxabicyclo[2.1.1]hexan-4-yl)-6-isopropoxy-N-(1-((1S,2R)-2-methylcyclopropyl)-2-oxo-1,2-dihydropyridin-3-yl)-2H-pyrazolo[3,4-b]pyridine-5-carboxamide] | 0.5 | 32.4 (≈ 72.1 µM) | – | 4.42 | 1 | – | – | – | – | –
CC(C)Oc1nc2nn(C34COC(C)(C3)C4)cc2cc1C(=O)Nc1cccn([C@H]2C[C@H]2F)c1=O (single isomer, unassigned) [Example 34] | – | 24.9 (≈ 53.3 µM) | – | 3.8 | 0.7 | – | – | – | – | –
COCC12CC(n3cc4cc(C(=O)Nc5cccn(C6CC6)c5=O)c(OC(C)C)cc4n3)(CO1)C2 [Example 12, N-(1-cyclopropyl-2-oxo-1,2-dihydropyridin-3-yl)-6-isopropoxy-2-(1-(methoxymethyl)-2-oxabicyclo[2.1.1]hexan-4-yl)-2H-indazole-5-carboxamide] | 0.5 | 67.7 (≈ 141 µM) | – | 2.82 | 0.7 | – | – | – | – | –
COCC12CC(n3cc4cc(C(=O)Nc5cccn([C@H]6C[C@H]6F)c5=O)c(OC(C)C)nc4n3)(CO1)C2 [Example 49, N-(1-((1S,2R)-2-fluorocyclopropyl)-2-oxo-1,2-dihydropyridin-3-yl)-6-isopropoxy-2-(1-(methoxymethyl)-2-oxabicyclo[2.1.1]hexan-4-yl)-2H-pyrazolo[3,4-b]pyridine-5-carboxamide] | 0.1 | 62.3 (≈ 125 µM) | – | 9.67 | 0.4 | – | – | – | – | –
COCC12CC(n3cc4cc(C(=O)Nc5cccn([C@H]6C[C@H]6C)c5=O)c(OC(C)C)nc4n3)(CO1)C2 [Example 77, 6-isopropoxy-2-(1-(methoxymethyl)-2-oxabicyclo[2.1.1]hexan-4-yl)-N-(1-((1S,2R)-2-methylcyclopropyl)-2-oxo-1,2-dihydropyridin-3-yl)-2H-pyrazolo[3,4-b]pyridine-5-carboxamide] | 0.4 | 51 (≈ 103 µM) | – | 2.09 | 0.9 | – | – | – | – | –
CC(C)Oc1cc2nn([C@@]34CC[C@@](C)(C3)OC4)cc2cc1C(=O)Nc1cccn([C@@H]2C[C@H]2F)c1=O (single isomer, unassigned) [Example 59] | 0.5 | 55.4 (≈ 115 µM) | – | 1.59 | 1.3 | – | – | – | – | –
